Data from the supplement of paper PMC10307832.

Tests used:
Test in all cases: relative viability (nuclei count vs DMSO), 5 days (fraction); higher = more cells survive
Everolimus + Trametinib = compound: CO[C@H]1C[C@@H]2CC[C@@H](C)[C@@](O)(O2)C(=O)C(=O)N2CCCC[C@H]2C(=O)O[C@H]([C@H](C)C[C@@H]2CC[C@@H](OCCO)[C@H](OC)C2)CC(=O)[C@H](C)/C=C(\C)[C@@H](O)[C@@H](OC)C(=O)[C@H](C)C[C@H](C)/C=C/C=C/C=C/1C [Everolimus] + CC(=O)Nc1cccc(-n2c(=O)n(C3CC3)c(=O)c3c(Nc4ccc(I)cc4F)n(C)c(=O)c(C)c32)c1 [Trametinib] (partner 0.02 µM)
How it was run: (§1)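 Lung cancer cell lines in 1536-well plates were dosed by pin tool the day after seeding, either with one drug alone or with a fixed anchor-drug dose plus five library-drug doses (not always all listed) in √10 steps. After 5 days, cells were fixed and their nuclei stained in one step (final 0.05% Triton X-100, 1% formaldehyde, 1 ug/ml Hoechst), then counted on 4× images. Relative viability is the nuclei count in treated wells divided by that in vehicle wells. Values are medians of duplicate plates.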

Everolimus + Bortezomib = compound: CO[C@H]1C[C@@H]2CC[C@@H](C)[C@@](O)(O2)C(=O)C(=O)N2CCCC[C@H]2C(=O)O[C@H]([C@H](C)C[C@@H]2CC[C@@H](OCCO)[C@H](OC)C2)CC(=O)[C@H](C)/C=C(\C)[C@@H](O)[C@@H](OC)C(=O)[C@H](C)C[C@H](C)/C=C/C=C/C=C/1C [Everolimus] + CC(C)C[C@H](NC(=O)[C@H](Cc1ccccc1)NC(=O)c1cnccn1)B(O)O [Bortezomib] (partner 0.002 µM)
How it was run: as §1

Everolimus + Pictilisib = compound: CO[C@H]1C[C@@H]2CC[C@@H](C)[C@@](O)(O2)C(=O)C(=O)N2CCCC[C@H]2C(=O)O[C@H]([C@H](C)C[C@@H]2CC[C@@H](OCCO)[C@H](OC)C2)CC(=O)[C@H](C)/C=C(\C)[C@@H](O)[C@@H](OC)C(=O)[C@H](C)C[C@H](C)/C=C/C=C/C=C/1C [Everolimus] + CS(=O)(=O)N1CCN(Cc2cc3nc(-c4cccc5[nH]ncc45)nc(N4CCOCC4)c3s2)CC1 [Pictilisib] (partner 1 µM)
How it was run: as §1

Everolimus + Olaparib = compound: CO[C@H]1C[C@@H]2CC[C@@H](C)[C@@](O)(O2)C(=O)C(=O)N2CCCC[C@H]2C(=O)O[C@H]([C@H](C)C[C@@H]2CC[C@@H](OCCO)[C@H](OC)C2)CC(=O)[C@H](C)/C=C(\C)[C@@H](O)[C@@H](OC)C(=O)[C@H](C)C[C@H](C)/C=C/C=C/C=C/1C [Everolimus] + O=C(c1cc(Cc2n[nH]c(=O)c3ccccc23)ccc1F)N1CCN(C(=O)C2CC2)CC1 [Olaparib] (partner 8 µM)
How it was run: as §1

H3255
relative viability (Everolimus + Trametinib; first compound 0.01 µM): 0.414 | relative viability (Everolimus + Trametinib; first compound 0.03162 µM): 0.391 | relative viability (Everolimus + Trametinib; first compound 0.1 µM): 0.351 | relative viability (Everolimus + Trametinib; first compound 0.3162 µM): 0.433 | relative viability (Everolimus + Trametinib; first compound 1 µM): 0.403 | relative viability (Everolimus + Bortezomib; first compound 0.01 µM): 0.518 | relative viability (Everolimus + Bortezomib; first compound 0.03162 µM): 0.458 | relative viability (Everolimus + Bortezomib; first compound 0.1 µM): 0.359 | relative viability (Everolimus + Bortezomib; first compound 0.3162 µM): 0.394 | relative viability (Everolimus + Bortezomib; first compound 1 µM): 0.44 | relative viability (Everolimus + Pictilisib; first compound 0.01 µM): 0.35 | relative viability (Everolimus + Pictilisib; first compound 0.03162 µM): 0.332 | relative viability (Everolimus + Pictilisib; first compound 0.1 µM): 0.302 | relative viability (Everolimus + Pictilisib; first compound 0.3162 µM): 0.294 | relative viability (Everolimus + Pictilisib; first compound 1 µM): 0.281 | relative viability (Everolimus + Olaparib; first compound 0.01 µM): 0.489 | relative viability (Everolimus + Olaparib; first compound 0.03162 µM): 0.513 | relative viability (Everolimus + Olaparib; first compound 0.1 µM): 0.444 | relative viability (Everolimus + Olaparib; first compound 0.3162 µM): 0.454 | relative viability (Everolimus + Olaparib; first compound 1 µM): 0.355

HARA
relative viability (Everolimus + Trametinib; first compound 0.01 µM): 0.425 | relative viability (Everolimus + Trametinib; first compound 0.03162 µM): 0.394 | relative viability (Everolimus + Trametinib; first compound 0.1 µM): 0.346 | relative viability (Everolimus + Trametinib; first compound 0.3162 µM): 0.559 | relative viability (Everolimus + Trametinib; first compound 1 µM): 0.339 | relative viability (Everolimus + Bortezomib; first compound 0.01 µM): 1.07 | relative viability (Everolimus + Bortezomib; first compound 0.03162 µM): 1.14 | relative viability (Everolimus + Bortezomib; first compound 0.1 µM): 0.904 | relative viability (Everolimus + Bortezomib; first compound 0.3162 µM): 1.11 | relative viability (Everolimus + Bortezomib; first compound 1 µM): 1.01 | relative viability (Everolimus + Pictilisib; first compound 0.01 µM): 0.236 | relative viability (Everolimus + Pictilisib; first compound 0.03162 µM): 0.278 | relative viability (Everolimus + Pictilisib; first compound 0.1 µM): 0.227 | relative viability (Everolimus + Pictilisib; first compound 0.3162 µM): 0.228 | relative viability (Everolimus + Pictilisib; first compound 1 µM): 0.238 | relative viability (Everolimus + Olaparib; first compound 0.01 µM): 0.78 | relative viability (Everolimus + Olaparib; first compound 0.03162 µM): 0.762 | relative viability (Everolimus + Olaparib; first compound 0.1 µM): 0.86 | relative viability (Everolimus + Olaparib; first compound 0.3162 µM): 0.84 | relative viability (Everolimus + Olaparib; first compound 1 µM): 0.471

HCC-15
relative viability (Everolimus + Trametinib; first compound 0.01 µM): 0.35 | relative viability (Everolimus + Trametinib; first compound 0.03162 µM): 0.344 | relative viability (Everolimus + Trametinib; first compound 0.1 µM): 0.334 | relative viability (Everolimus + Trametinib; first compound 0.3162 µM): 0.282 | relative viability (Everolimus + Trametinib; first compound 1 µM): 0.32 | relative viability (Everolimus + Bortezomib; first compound 0.01 µM): 1.01 | relative viability (Everolimus + Bortezomib; first compound 0.03162 µM): 1.09 | relative viability (Everolimus + Bortezomib; first compound 0.1 µM): 0.968 | relative viability (Everolimus + Bortezomib; first compound 0.3162 µM): 1.06 | relative viability (Everolimus + Bortezomib; first compound 1 µM): 1.07 | relative viability (Everolimus + Pictilisib; first compound 0.01 µM): 0.633 | relative viability (Everolimus + Pictilisib; first compound 0.03162 µM): 0.517 | relative viability (Everolimus + Pictilisib; first compound 0.1 µM): 0.372 | relative viability (Everolimus + Pictilisib; first compound 0.3162 µM): 0.539 | relative viability (Everolimus + Pictilisib; first compound 1 µM): 0.545 | relative viability (Everolimus + Olaparib; first compound 0.01 µM): 0.723 | relative viability (Everolimus + Olaparib; first compound 0.03162 µM): 0.796 | relative viability (Everolimus + Olaparib; first compound 0.1 µM): 0.642 | relative viability (Everolimus + Olaparib; first compound 0.3162 µM): 0.656 | relative viability (Everolimus + Olaparib; first compound 1 µM): 0.647

HCC-44
relative viability (Everolimus + Trametinib; first compound 0.01 µM): 1.13 | relative viability (Everolimus + Trametinib; first compound 0.03162 µM): 1.08 | relative viability (Everolimus + Trametinib; first compound 0.1 µM): 0.982 | relative viability (Everolimus + Trametinib; first compound 0.3162 µM): 1.04 | relative viability (Everolimus + Trametinib; first compound 1 µM): 0.901 | relative viability (Everolimus + Bortezomib; first compound 0.01 µM): 0.978 | relative viability (Everolimus + Bortezomib; first compound 0.03162 µM): 0.958 | relative viability (Everolimus + Bortezomib; first compound 0.1 µM): 0.937 | relative viability (Everolimus + Bortezomib; first compound 0.3162 µM): 1.08 | relative viability (Everolimus + Bortezomib; first compound 1 µM): 0.858 | relative viability (Everolimus + Pictilisib; first compound 0.01 µM): 0.429 | relative viability (Everolimus + Pictilisib; first compound 0.03162 µM): 0.427 | relative viability (Everolimus + Pictilisib; first compound 0.1 µM): 0.309 | relative viability (Everolimus + Pictilisib; first compound 0.3162 µM): 0.55 | relative viability (Everolimus + Pictilisib; first compound 1 µM): 0.323 | relative viability (Everolimus + Olaparib; first compound 0.01 µM): 1 | relative viability (Everolimus + Olaparib; first compound 0.03162 µM): 1.17 | relative viability (Everolimus + Olaparib; first compound 0.1 µM): 1.07 | relative viability (Everolimus + Olaparib; first compound 0.3162 µM): 1.06 | relative viability (Everolimus + Olaparib; first compound 1 µM): 1.03

HCC-78
relative viability (Everolimus + Trametinib; first compound 0.01 µM): 0.637 | relative viability (Everolimus + Trametinib; first compound 0.03162 µM): 0.56 | relative viability (Everolimus + Trametinib; first compound 0.1 µM): 0.493 | relative viability (Everolimus + Trametinib; first compound 0.3162 µM): 0.529 | relative viability (Everolimus + Trametinib; first compound 1 µM): 0.47 | relative viability (Everolimus + Bortezomib; first compound 0.01 µM): 0.428 | relative viability (Everolimus + Bortezomib; first compound 0.03162 µM): 0.375 | relative viability (Everolimus + Bortezomib; first compound 0.1 µM): 0.384 | relative viability (Everolimus + Bortezomib; first compound 0.3162 µM): 0.371 | relative viability (Everolimus + Bortezomib; first compound 1 µM): 0.314 | relative viability (Everolimus + Pictilisib; first compound 0.01 µM): 0.193 | relative viability (Everolimus + Pictilisib; first compound 0.03162 µM): 0.19 | relative viability (Everolimus + Pictilisib; first compound 0.1 µM): 0.201 | relative viability (Everolimus + Pictilisib; first compound 0.3162 µM): 0.185 | relative viability (Everolimus + Pictilisib; first compound 1 µM): 0.16 | relative viability (Everolimus + Olaparib; first compound 0.01 µM): 0.827 | relative viability (Everolimus + Olaparib; first compound 0.03162 µM): 0.43 | relative viability (Everolimus + Olaparib; first compound 0.1 µM): 0.657 | relative viability (Everolimus + Olaparib; first compound 0.3162 µM): 0.717 | relative viability (Everolimus + Olaparib; first compound 1 µM): 0.678

HCC-366
relative viability (Everolimus + Trametinib; first compound 0.01 µM): 0.258 | relative viability (Everolimus + Trametinib; first compound 0.03162 µM): 0.245 | relative viability (Everolimus + Trametinib; first compound 0.1 µM): 0.257 | relative viability (Everolimus + Trametinib; first compound 0.3162 µM): 0.227 | relative viability (Everolimus + Trametinib; first compound 1 µM): 0.225 | relative viability (Everolimus + Bortezomib; first compound 0.01 µM): 1.02 | relative viability (Everolimus + Bortezomib; first compound 0.03162 µM): 1.07 | relative viability (Everolimus + Bortezomib; first compound 0.1 µM): 0.983 | relative viability (Everolimus + Bortezomib; first compound 0.3162 µM): 0.878 | relative viability (Everolimus + Bortezomib; first compound 1 µM): 0.772 | relative viability (Everolimus + Pictilisib; first compound 0.01 µM): 0.116 | relative viability (Everolimus + Pictilisib; first compound 0.03162 µM): 0.0953 | relative viability (Everolimus + Pictilisib; first compound 0.1 µM): 0.131 | relative viability (Everolimus + Pictilisib; first compound 0.3162 µM): 0.11 | relative viability (Everolimus + Pictilisib; first compound 1 µM): 0.138 | relative viability (Everolimus + Olaparib; first compound 0.01 µM): 0.337 | relative viability (Everolimus + Olaparib; first compound 0.03162 µM): 0.271 | relative viability (Everolimus + Olaparib; first compound 0.1 µM): 0.302 | relative viability (Everolimus + Olaparib; first compound 0.3162 µM): 0.27 | relative viability (Everolimus + Olaparib; first compound 1 µM): 0.284

HCC-827
relative viability (Everolimus + Trametinib; first compound 0.01 µM): 0.494 | relative viability (Everolimus + Trametinib; first compound 0.03162 µM): 0.314 | relative viability (Everolimus + Trametinib; first compound 0.1 µM): 0.311 | relative viability (Everolimus + Trametinib; first compound 0.3162 µM): 0.31 | relative viability (Everolimus + Trametinib; first compound 1 µM): 0.295 | relative viability (Everolimus + Bortezomib; first compound 0.01 µM): 0.995 | relative viability (Everolimus + Bortezomib; first compound 0.03162 µM): 1.19 | relative viability (Everolimus + Bortezomib; first compound 0.1 µM): 1.07 | relative viability (Everolimus + Bortezomib; first compound 0.3162 µM): 1.16 | relative viability (Everolimus + Bortezomib; first compound 1 µM): 1.09 | relative viability (Everolimus + Pictilisib; first compound 0.01 µM): 0.957 | relative viability (Everolimus + Pictilisib; first compound 0.03162 µM): 0.875 | relative viability (Everolimus + Pictilisib; first compound 0.1 µM): 0.781 | relative viability (Everolimus + Pictilisib; first compound 0.3162 µM): 0.863 | relative viability (Everolimus + Pictilisib; first compound 1 µM): 0.611 | relative viability (Everolimus + Olaparib; first compound 0.01 µM): 0.73 | relative viability (Everolimus + Olaparib; first compound 0.03162 µM): 0.672 | relative viability (Everolimus + Olaparib; first compound 0.1 µM): 0.681 | relative viability (Everolimus + Olaparib; first compound 0.3162 µM): 0.501 | relative viability (Everolimus + Olaparib; first compound 1 µM): 0.645
